From PMC6244841, “Enhanced Absorption and Growth Inhibition with Amino Acid Monoester Prodrugs of Floxuridine by Targeting hPEPT1 Transporters” (Molecules, 2008)
Marks after values point to notes of the source that are not given here.

Columns and labels:
hPEPT1 [1] = target: T1, hPEPT1 (Homo sapiens, UniProt P46059); assay: [3H]Gly-Sar uptake inhibition in Caco-2 cells; type: cell-based; details: for IC50: 10 µmol/L Gly-Sar, 30 minutes, mean ± S.D., read-out: IC50 Value, inhibition of Gly-Sar uptake, Caco-2 cell
T1 sequence (P46059 1-708): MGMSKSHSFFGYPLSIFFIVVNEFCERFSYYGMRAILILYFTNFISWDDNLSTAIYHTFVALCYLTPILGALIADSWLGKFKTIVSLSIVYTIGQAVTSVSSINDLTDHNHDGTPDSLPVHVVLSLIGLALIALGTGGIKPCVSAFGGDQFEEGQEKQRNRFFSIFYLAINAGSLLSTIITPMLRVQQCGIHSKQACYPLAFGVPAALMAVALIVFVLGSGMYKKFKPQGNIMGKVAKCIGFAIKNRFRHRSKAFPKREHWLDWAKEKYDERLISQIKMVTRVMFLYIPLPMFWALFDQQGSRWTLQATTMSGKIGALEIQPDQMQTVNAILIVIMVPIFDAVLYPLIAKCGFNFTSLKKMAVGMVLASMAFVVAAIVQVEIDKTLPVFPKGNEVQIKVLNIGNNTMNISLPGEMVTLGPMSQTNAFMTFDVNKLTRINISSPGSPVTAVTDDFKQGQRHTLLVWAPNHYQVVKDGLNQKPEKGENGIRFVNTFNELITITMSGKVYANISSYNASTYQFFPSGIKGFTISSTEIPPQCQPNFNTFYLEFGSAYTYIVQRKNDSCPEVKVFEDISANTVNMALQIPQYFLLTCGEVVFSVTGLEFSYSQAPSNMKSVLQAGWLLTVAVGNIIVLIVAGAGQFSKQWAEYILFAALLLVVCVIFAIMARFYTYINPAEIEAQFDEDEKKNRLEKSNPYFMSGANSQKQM
Experimental: (§1) Caco-2 cells at nine days post-seeding, and AsPC-1 cells at four days post-seeding were incubated with 10 µmol/L Gly-Sar (9.98 µmol/L Gly-Sar and 0.02 µmol/L [3H]Gly-Sar) along with various prodrug concentrations (5–0.05 mmol/L) for 30 minutes. The cells were washed three times with ice-cold PBS and solubilized with 10 mL of scintillation cocktail (ScintiVerse®, Fisher Scientific, St.Louis, MO, USA). The amount of cell-associated radioactivity was determined by scintillation counting (Beckman LS-9000, Beckman Instruments, Fullerton, CA, USA). The half maximal inhibitory concentration (IC50) values were determined using nonlinear data fitting (GraphPad Prism version 3.0).

[2] = Chemical stability (nonenzymatic hydrolysis) in pH 7.4 phosphate buffer; type: physicochemical; details: 37°C, mean ± S.D.
Experimental: (§2) The experiments concerning prodrug stability were performed at 37°C in pH 7.4 phosphate buffers and Caco-2, AsPC-1, and MDCK cell homogenates.
Chemical Stability. The nonenzymatic hydrolysis of the prodrugs was determined as described above, except that each well contained pH 7.4 phosphate buffers (10 mmol/L) instead of cell homogenate.
(§3) The initial rates of hydrolysis were used to obtain the apparent first-order rate constants and to calculate the half-lives. The apparent first-order degradation rate constants of various floxuridine prodrugs at 37°C were determined by plotting the logarithm of prodrug remaining as a function of time. The slopes of these plots are related to the rate constant, k, and given by
(§4) k = 2.303 × slope (log C vs. time) (1)
(§5) The degradation half-lives were then calculated by the equation

hPEPT1 [3] = target: T1, hPEPT1; assay: [3H]Gly-Sar uptake inhibition in AsPC-1 cells; type: cell-based; details: for IC50: 10 µmol/L Gly-Sar, 30 minutes, mean ± S.D., read-out: IC50 Value, inhibition of Gly-Sar uptake, AsPC-1 cell
Experimental: as §1

[4] = Enzymatic stability in Caco-2 cell homogenates; type: in vitro ADME; details: for half-life: human, Caco-2, pH 7.4, 37°C, protein 500 μg/mL, mean ± S.D., read-out: Half Life, Homogenates from Caco-2 cells
Experimental: as §2
(§6) Enzymatic Stability. Confluent Caco-2 cells, AsPC-1 cells, and MDCK cells were rinsed twice with saline. The cells were washed with pH 7.4 phosphate buffer (5 mL, 10 mmol/L), lysed by ultrasonication (Micro ultrasonic cell disrupter Model KT40, Kontes, Vineland, NJ, USA), and pelleted by centrifugation for 5 minutes at 1,000 x g. Protein amount was quantified with the Bio-Rad (Hercules, CA, USA) DC Protein Assay using bovine serum albumin as a standard. The amount of protein was adjusted to 500 μg/mL and hydrolysis reactions were carried out in 96-well plates (Corning). Caco-2, AsPC-1, and MDCK cell suspensions (250 µL) were placed in triplicate wells, the reactions were started with the addition of substrate, and cells were incubated at 37°C for 120 minutes. At the desired time point, sample aliquots (35 µL) were removed and added to acetonitrile (ACN, 150 µL) with 0.1% TFA. The mixtures were filtered with a 0.45 µm filters at 1,000 x g for 10 minutes at 4°C. The filtrate was then analyzed via reverse-phase HPLC.
as §3, §4, §5

[5] = Enzymatic stability in AsPC-1 cell homogenates; type: in vitro ADME; details: for half-life: human, AsPC-1 cell homogenate, pH 7.4, 37°C, protein 500 μg/mL, mean ± S.D., read-out: Half Life, Homogenates from AsPC-1 cells
Experimental: as §2, §6, §3, §4, §5

[6] = Enzymatic stability in MDCK cell homogenates; type: in vitro ADME; details: dog, pH 7.4, 37°C, protein 500 μg/mL, mean ± S.D., read-out: Half Life, Homogenates from MDCK cells
Experimental: as §2, §6, §3, §4, §5

MDCK cells = assay: Cell proliferation assay (XTT) in MDCK cells; type: cell-based; details: Canis lupus familiaris, 2 hours exposure, 24 hours recovery, mean ± S.D.
Experimental: (§7) Cell proliferation studies were conducted with MDCK cells and MDCK cells that express hPEPT1 (MDCK/hPEPT1). The cells were seeded into 96-well plates at 125,000 cells per well and allowed to attach/grow for 24 hours before drug solutions were added. The culture medium (DMEM + 10% fetal bovine serum) was removed and the cells were gently washed once with sterile pH 6.0 uptake buffer. Floxuridine and floxuridine prodrugs were 2-fold serially diluted in pH 6.0 uptake buffer from 4 to 0.25 mmol/L. Buffer alone was used as 100% viability control. The wash buffer was removed and 30 µL drug solution per well was added and incubated at 37°C for 2 hours in the cell incubator. After this time, the drug solutions were removed and the cells were again gently washed twice with sterile uptake buffer. The culture medium was then added to each well after washing. The cells were allowed to recover for 24 hours before evaluating cell viability via 2,3-bis[2-methoxy-4-nitro-5-sulfophenyl]-2H-tetrazolium-5-carboxanilide inner salt (XTT) assays. A mixture (30 µL) containing XTT (1 mg/mL) in sterile DMEM without phenol red and phenazine methosulfate (N-methyldibenzopyrazine methyl sulfate in sterile PBS, 0.383 mg/mL) reagents were added to the cells and incubated at 37°C for 1 hour, after which the absorbance at 450 nm was read. The concentrations required to inhibit cell growth by 50% (GI50) were calculated using GraphPad Prism version 3.0 by nonlinear data fitting.

MDCK/hPEPT1 cells = assay: Cell proliferation assay (XTT) in MDCK/hPEPT1 cells; type: cell-based; details: for GI50: Canis lupus familiaris, MDCK, read-out: GI50, MDCK/hPEPT1
Experimental: as §7

[7] = parameters: method as in PMID 16132363; details: pH 7.4 phosphate buffer, 37°C, mean ± S.D.; ref [40]; cited from earlier work
[8] = Caco-2 permeability study (apical-to-basolateral); details: relative to 5-FU
[9] = relative to 5'-O-L-valyl-floxuridine

Compound	IC50 (hPEPT1 [1])	half-life [2]	IC50 (hPEPT1 [3])	half-life [4]	half-life [5]	half-life [6]	GI50 (MDCK cells)	GI50 (MDCK/hPEPT1 cells)	Enhancement Factor (ratio of GI50 in MDCK and MDCK/hPEPT1 cells) (MDCK/hPEPT1 cells)	also measured
CC(C)[C@@H](N)C(=O)OC[C@H]1O[C@@H](n2cc(F)c(=O)[nH]c2=O)C[C@@H]1O [5'-O-D-valyl-floxuridine]	2.6 ± 0.1 mM	345 ± 10.2 min	4.8 ± 1.3 mM	343 ± 120 min	291 ± 48.9 min	312 ± 45.4 min	0.0885 ± 0.0026 mM	0.071 ± 0.0027 mM	1.25	fold less inhibition of the transporters than 5'-O-L-valyl-floxuridine, Caco-2 cells (hPEPT1 [1]; [9]): 2.5 fold; fold less inhibition of the transporters than 5'-O-L-valyl-floxuridine, AsPC-1 cells (hPEPT1 [3]; [9]): 1.6 fold; improvement of cell growth inhibition in MDCK/hPEPT1 cells (MDCK/hPEPT1 cells; MDCK/hPEPT1 vs MDCK): 25%
NCC(=O)OC[C@H]1O[C@@H](n2cc(F)c(=O)[nH]c2=O)C[C@@H]1O [5'-O-L-glycyl-floxuridine]	2.3 ± 0.6 mM	85.5 ± 3.2 min	2.7 ± 0.5 mM	24.1 ± 2 min	27.6 ± 5.8 min	11.2 ± 2 min	–	–	–	–
CC[C@H](C)[C@H](N)C(=O)OC[C@H]1O[C@@H](n2cc(F)c(=O)[nH]c2=O)C[C@@H]1O [5'-O-L-isoleucyl-floxuridine]	0.7 mM	–	4.1 ± 1.8 mM	192 ± 31.8 min	198 ± 34.1 min	245 ± 18.3 min	0.186 ± 0.0042 mM	0.0103 ± 0.0029 mM	18.04	Half Life, Buffer pH 7.4 [7]: 323.5 ± 1.5^a min; Enhancement Factor (ratio of GI50 in MDCK and MDCK/hPEPT1 cells) (MDCK/hPEPT1 cells; listed as 5ʹ-O-L-isoleucyl-floxuridine): 18
CC(C)C[C@H](N)C(=O)OC[C@H]1O[C@@H](n2cc(F)c(=O)[nH]c2=O)C[C@@H]1O [5'-O-L-leucyl-floxuridine]	2 ± 0.3 mM	77.3 ± 1.2 min	2.6 ± 0.2 mM	4.8 ± 0.2 min	2 ± 0.1 min	9.2 ± 1.1 min	0.0235 ± 0.003 mM	0.0023 ± 0.001 mM	10.09	fold more quickly hydrolyzed in AsPC-1 cell homogenates than in Caco-2 cell homogenates ([5]; AsPC-1 vs Caco-2 homogenates): 2.4 fold; fold more quickly hydrolyzed in AsPC-1 cell homogenates than in MDCK cell homogenates ([5]; AsPC-1 vs MDCK homogenates): 4.7 fold; Enhancement Factor (ratio of GI50 in MDCK and MDCK/hPEPT1 cells) (MDCK/hPEPT1 cells; listed as 5ʹ-O-L-leucyl-floxuridine): 10
N[C@@H](Cc1ccccc1)C(=O)OC[C@H]1O[C@@H](n2cc(F)c(=O)[nH]c2=O)C[C@@H]1O [5'-O-L-phenylalanyl-floxuridine]	2.1 ± 0.1 mM	222 ± 56.7 min	2 ± 0.1 mM	11.1 ± 9.9 min	11.8 ± 1.7 min	6 ± 0.6 min	0.0413 ± 0.0039 mM	0.0047 ± 0.0024 mM	8.80	fold less stability in cell homogenates compared to pH 7.4 phosphate buffers ([4]; cell homogenates vs pH 7.4 phosphate buffers): 20 fold
CC(C)[C@H](N)C(=O)OC[C@H]1O[C@@H](n2cc(F)c(=O)[nH]c2=O)C[C@@H]1O [5'-O-L-valyl-floxuridine]	1 ± 0.1 mM	304 ± 17.8 min	2.9 ± 0.4 mM	9.4 ± 0.6 min	18.7 ± 6.7 min	74.7 ± 5.3 min	0.127 ± 0.0077 mM	0.0211 ± 0.0042 mM	5.91	fold shorter half-life in Caco-2 cell homogenates than in AsPC-1 cell homogenates ([4]; Caco-2 vs AsPC-1 cell homogenates): 2 fold; Enhancement Factor (ratio of GI50 in MDCK and MDCK/hPEPT1 cells) (MDCK/hPEPT1 cells; listed as 5ʹ-O-L-valyl-floxuridine): about 6
O=c1[nH]c(=O)n([C@H]2C[C@H](O)[C@@H](CO)O2)cc1F [Floxuridine, 5-fluoro-2'-deoxyuridine]	7.3 ± 1.6 mM	–	6.3 ± 2.3 mM	5.7 ± 0.3 min	6.4 ± 3.2 min	68.9 ± 12.8 min	–	–	1.00	fold higher Caco-2 membrane permeability than 5-FU [8]: 12 fold
